Measurements: patent US20150031102A1, “METHODS AND COMPOSITIONS FOR ENHANCED PRODUCTION OF BUTANOL BY CLOSTRIDIA” (Butrolix LLC, priority 2012, published 2015)

Test system: Clostridium acetobutylicum strain ATCC 824
Test: Sequential batch transfer in 24-well culture plates (butanol, residual glucose, butanol yield and productivity)
Format: cell-based
Conditions: after 96 hours of culture; for Residual glucose concentration: initial glucose 60 g/L; for Butanol: Experiment 1
Procedure: Each well contained 1.5 mL of growth medium. Peptide was added to each well at the indicated concentration (0, 25, 50, and 100 nM). Every 24 hours fresh medium and peptide treatment were added to a new column of wells then 1.5 μL of the previous day culture was transferred to the new well. Wells were harvested for glucose and butanol analysis after 96 hours of growth. Transfers 1, 4, 7, 10, 13, 16, […].
Briefly, Clostridium spores were germinated in a suitable growth medium for 18-24 hours then […] was transferred to 1.5 mL of fresh medium in each of four wells on a 24-well culture plate. Three of the wells had been treated with 25 nM, 50 nM and 100 nM of peptide, respectively while the fourth well was untreated. Thereafter, every 24 hours […] of each subculture was transferred to 1.5 mL of fresh medium that contained the same peptide treatment or no treatment. Transfers of successive subcultures were done for 24 days, and each subculture was grown for 96 hours before being harvested. Culture supernatants were recovered following centrifugation and were analyzed for butanol and residual glucose concentrations. Determination of optimum peptide treatment levels was based on a graphical comparison of the concentration of butanol in each of the four culture wells for sequential transfers 1, 4, 7, 10, 13, 16, 19, 22 and 24.
Clostridium acetobutylicum strain ATCC 824 was used in all experiments and the growth medium used for sequential batch transfer, time course, and continuous culture experiments contained yeast extract, casamino acids, L-cysteine, L-asparagine, phosphate buffer, trace minerals, and 6% glucose. What are believed to be quorum-sensing peptides that were used in the experiments were chemically synthesized peptides SEQ ID NO: 143 (amino acid sequence: SYPGWSW) and SEQ ID NO: 144 (amino acid sequence: ILILISG). Routine growth of the bacteria as well as the sequential batch and time course experiments were conducted in a Form a Scientific Model 1029 anaerobic gas chamber at 32° C. Continuous cultures were performed at 32° C. using duplicate New Brunswick Scientific BioFlo 3000 apparati with a dilution rate of 0.01 volume per hour, 75 rpm agitation, and nitrogen gas sparging. Optical density of culture samples was measured at 600 nm in a Beckman DU 600 series spectrophotometer and glucose was analyzed using a YSI Model 2700 Select Biochemistry Analyzer with internal glucose calibration. Butanol concentrations were determined by measuring experimental and standard samples using a Varian Saturn 3 Gas Chromatograph/Mass Spectrometer and calculating butanol concentrations using standard curves.
(§1) Sequential batch transfer experiments were carried out in 24-well culture plates that contained 1.5 mL of medium per well. Peptide was added to each well at the indicated concentrations of 0 nM (control), 25 nM, 50 nM, or 100 nM. Every 24 hours, fresh medium and peptide treatments were added to a new column of wells. Then, 1.5 uL of the previous day culture was transferred to the new well. Wells were harvested for glucose and butanol analysis after 96 hours of growth; transfers 1, 4, 7, 10, 13, 16, 19, 22, and 24 were analyzed. Two representative experiments are shown in Tables 30 and 31 and FIGS. 14 and 15.
as §1, with “32” for “30”, “33” for “31”, “16” for “14”, “17.” for “15.”

[1] = 25 nM peptide, transfer 1, Expt. 2 (repeat)
[2] = 25 nM peptide, transfer 4, Expt. 2 (repeat)
[3] = 25 nM peptide, transfer 7, Expt. 2 (repeat)
[4] = 25 nM peptide, transfer 10, Expt. 2 (repeat)
[5] = 25 nM peptide, transfer 13, Expt. 2 (repeat)
[6] = 25 nM peptide, transfer 16, Expt. 2 (repeat)
[7] = 25 nM peptide, transfer 19, Expt. 2 (repeat)
[8] = 25 nM peptide, transfer 22, Expt. 2 (repeat)
[9] = 25 nM peptide, transfer 24, Expt. 2 (repeat)
[10] = 25 nM, transfer 1, first experiment
[11] = 25 nM, transfer 4, first experiment
[12] = 25 nM, transfer 7, first experiment
[13] = 25 nM, transfer 10, first experiment
[14] = 25 nM, transfer 13, first experiment
[15] = 25 nM, transfer 16, first experiment
[16] = 25 nM, transfer 19, first experiment
[17] = 25 nM, transfer 22, first experiment
[18] = 25 nM, transfer 24, first experiment
[19] = 50 nM peptide, transfer 1, Expt. 2 (repeat)
[20] = 50 nM peptide, transfer 4, Expt. 2 (repeat)
[21] = 50 nM peptide, transfer 7, Expt. 2 (repeat)
[22] = 50 nM peptide, transfer 10, Expt. 2 (repeat)
[23] = 50 nM peptide, transfer 13, Expt. 2 (repeat)
[24] = 50 nM peptide, transfer 16, Expt. 2 (repeat)
[25] = 50 nM peptide, transfer 19, Expt. 2 (repeat)
[26] = 50 nM peptide, transfer 22, Expt. 2 (repeat)
[27] = 50 nM peptide, transfer 24, Expt. 2 (repeat)
[28] = 50 nM, transfer 1, first experiment
[29] = 50 nM, transfer 4, first experiment
[30] = 50 nM, transfer 7, first experiment

What does the source list for SYPGWSW [peptide SEQ ID NO: 143]?
Butanol concentration [1]: 0.75 g/L; Butanol productivity [1]: 0.01 g butanol/L-h; Butanol yield [1]: 0.01 g butanol/g/glucose; Residual glucose concentration [1]: 49.0 g/L; Butanol concentration [2]: 1.40 g/L; Butanol productivity [2]: 0.01 g butanol/L-h; Butanol yield [2]: 0.02 g butanol/g/glucose; Residual glucose concentration [2]: 43.5 g/L; Butanol concentration [3]: 1.83 g/L; Butanol productivity [3]: 0.02 g butanol/L-h; Butanol yield [3]: 0.03 g butanol/g/glucose; Residual glucose concentration [3]: 48.9 g/L; Butanol concentration [4]: 2.93 g/L; Butanol productivity [4]: 0.03 g butanol/L-h; Butanol yield [4]: 0.05 g butanol/g/glucose; Residual glucose concentration [4]: 43.9 g/L; Butanol concentration [5]: 2.89 g/L; Butanol productivity [5]: 0.03 g butanol/L-h; Butanol yield [5]: 0.05 g butanol/g/glucose; Residual glucose concentration [5]: 44.7 g/L; Butanol concentration [6]: 6.32 g/L; Butanol productivity [6]: 0.07 g butanol/L-h; Butanol yield [6]: 0.11 g butanol/g/glucose; Residual glucose concentration [6]: 39.1 g/L; Butanol concentration [7]: 2.65 g/L; Butanol productivity [7]: 0.03 g butanol/L-h; Butanol yield [7]: 0.05 g butanol/g/glucose; Residual glucose concentration [7]: 44.1 g/L; Butanol concentration [8]: 6.86 g/L; Butanol productivity [8]: 0.07 g butanol/L-h; Butanol yield [8]: 0.12 g butanol/g/glucose; Residual glucose concentration [8]: 0.1 g/L; Butanol concentration [9]: 5.33 g/L; Butanol productivity [9]: 0.06 g butanol/L-h; Butanol yield [9]: 0.09 g butanol/g/glucose; Residual glucose concentration [9]: 16.0 g/L; Butanol (25 nM, transfer 1): 1.21 g/L; Butanol productivity [10]: 0.01 g butanol/L-h; Butanol yield [10]: 0.02 g butanol/g/glucose; Residual glucose concentration [10]: 45.3 g/L; Butanol (25 nM, transfer 4): 11.87 g/L; Butanol productivity [11]: 0.12 g butanol/L-h; Butanol yield [11]: 0.20 g butanol/g/glucose; Residual glucose concentration [11]: 0.1 g/L; Butanol (25 nM, transfer 7): 9.09 g/L; Butanol productivity [12]: 0.09 g butanol/L-h; Butanol yield [12]: 0.15 g butanol/g/glucose; Residual glucose concentration [12]: 0.1 g/L; Butanol (25 nM, transfer 10): 12.83 g/L; Butanol productivity [13]: 0.13 g butanol/L-h; Butanol yield [13]: 0.22 g butanol/g/glucose; Residual glucose concentration [13]: 0.1 g/L; Butanol (25 nM, transfer 13): 9.97 g/L; Butanol productivity [14]: 0.10 g butanol/L-h; Butanol yield [14]: 0.17 g butanol/g/glucose; Residual glucose concentration [14]: 0.1 g/L; Butanol (25 nM, transfer 16): 11.66 g/L; Butanol productivity [15]: 0.12 g butanol/L-h; Butanol yield [15]: 0.20 g butanol/g/glucose; Residual glucose concentration [15]: 0.1 g/L; Butanol (25 nM, transfer 19): 4.37 g/L; Butanol productivity [16]: 0.05 g butanol/L-h; Butanol yield [16]: 0.07 g butanol/g/glucose; Residual glucose concentration [16]: 48.1 g/L; Butanol (25 nM, transfer 22): 7.12 g/L; Butanol productivity [17]: 0.07 g butanol/L-h; Butanol yield [17]: 0.12 g butanol/g/glucose; Residual glucose concentration [17]: 45.7 g/L; Butanol (25 nM, transfer 24): 5.06 g/L; Butanol productivity [18]: 0.05 g butanol/L-h; Butanol yield [18]: 0.08 g butanol/g/glucose; Residual glucose concentration [18]: 48.5 g/L; Butanol concentration [19]: 0.72 g/L; Butanol productivity [19]: 0.01 g butanol/L-h; Butanol yield [19]: 0.01 g butanol/g/glucose; Residual glucose concentration [19]: 48.9 g/L; Butanol concentration [20]: 1.41 g/L; Butanol productivity [20]: 0.01 g butanol/L-h; Butanol yield [20]: 0.02 g butanol/g/glucose; Residual glucose concentration [20]: 43.2 g/L; Butanol concentration [21]: 3.09 g/L; Butanol productivity [21]: 0.03 g butanol/L-h; Butanol yield [21]: 0.05 g butanol/g/glucose; Residual glucose concentration [21]: 41.3 g/L; Butanol concentration [22]: 7.69 g/L; Butanol productivity [22]: 0.08 g butanol/L-h; Butanol yield [22]: 0.13 g butanol/g/glucose; Residual glucose concentration [22]: 0.5 g/L; Butanol concentration [23]: 8.72 g/L; Butanol productivity [23]: 0.09 g butanol/L-h; Butanol yield [23]: 0.15 g butanol/g/glucose; Residual glucose concentration [23]: 0.1 g/L; Butanol concentration [24]: 10.70 g/L; Butanol productivity [24]: 0.11 g butanol/L-h; Butanol yield [24]: 0.18 g butanol/g/glucose; Residual glucose concentration [24]: 0.1 g/L; Butanol concentration [25]: 5.75 g/L; Butanol productivity [25]: 0.06 g butanol/L-h; Butanol yield [25]: 0.10 g butanol/g/glucose; Residual glucose concentration [25]: 0.1 g/L; Butanol concentration [26]: 4.54 g/L; Butanol productivity [26]: 0.05 g butanol/L-h; Butanol yield [26]: 0.08 g butanol/g/glucose; Residual glucose concentration [26]: 0.1 g/L; Butanol concentration [27]: 4.78 g/L; Butanol productivity [27]: 0.05 g butanol/L-h; Butanol yield [27]: 0.08 g butanol/g/glucose; Residual glucose concentration [27]: 0.1 g/L; Butanol (50 nM, transfer 1): 1.12 g/L; Butanol productivity [28]: 0.01 g butanol/L-h; Butanol yield [28]: 0.02 g butanol/g/glucose; Residual glucose concentration [28]: 45.5 g/L; Butanol (50 nM, transfer 4): 11.53 g/L; Butanol productivity [29]: 0.12 g butanol/L-h; Butanol yield [29]: 0.19 g butanol/g/glucose; Residual glucose concentration [29]: 0.1 g/L; Butanol (50 nM, transfer 7): 9.36 g/L; Butanol productivity [30]: 0.10 g butanol/L-h; Butanol yield [30]: 0.16 g butanol/g/glucose; Residual glucose concentration [30]: 0.1 g/L; Butanol (50 nM, transfer 10): 13.66 g/L
